In patent publication US20260028355A1, “PROTEOLYSIS TARGETING CHIMERA (PROTAC) COMPOSITIONS USING UBIQUITIN CONJUGATING ENZYME LIGANDS” (Berg LLC, priority 2022, published 2026):

Assays:
[1] = target: T1, UBE2K (Homo sapiens, UniProt P61086); test: UBE2K dissociation constant (Kd) by surface plasmon resonance (Biacore S200); format: binding; settings: SPR, steady state fitting; immobilized biotinylated UBE2K-Ub complex and UBE2K wild type
T1 sequence (P61086 1-200): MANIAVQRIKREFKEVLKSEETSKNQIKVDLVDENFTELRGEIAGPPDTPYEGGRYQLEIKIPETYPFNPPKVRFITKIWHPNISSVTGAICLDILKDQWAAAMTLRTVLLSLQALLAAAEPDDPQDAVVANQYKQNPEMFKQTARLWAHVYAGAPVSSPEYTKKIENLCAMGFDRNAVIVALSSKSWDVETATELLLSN
Description: UBE2K Dissociation Constant (Kd) of E2-binder Compound 1
UBE2K Ligand binding to mono-Ub UBE2K and UBE2K was measured by Surface plasma resonance using a Biacore SPR S200 instrument. The proteins and ligands were prepared for experimental measurement as described below.
Avi tagged proteins were biotinylated and were immobilized on a Series S/Sensor Chip SA. Proteins were immobilized based on their molar weight as follows -Biotinylated Avi peptide (1000 μM), Biotinylated UBE2K-Ub Complex (12 μM) and Biotinylated UBE2K Wild Type (3 μM). Proteins were immobilized using a buffer comprised of 1X HBS-N Buffer+0.05% Tween 20 (250 mL). A stock of Compound 1 was prepared in affinity buffer comprised of 1% DMSO, 1×PBS-P+Buffer. Further dilution of stock were prepared in 0% DMSO, 1×PBS-P+Buffer or 3% DMSO, 1×PBS-P+Buffer and were used as running buffers. Compound 1 was prepared as 2 mM or 750 μM stocks in the buffers described above. Titration was performed using the Liquid handler/TECAN EVO (WALL-E) as follows. 1 or 2, 96 deep well plates (1.2 mL) were used for performing titrations-Aliquoted 3% DMSO, 1×PBS-P+buffer. 1:2 dilution was performed by WALL-E (250 μL+250 μL) for the rest of titrations till 3.12 μM. The titrations of Compound 1 was then transferred to 384 deep well plate in duplicates side-by-side (125 μL) each. […]

[2] = tested on: UBE2K-Ub; test: E2 binding capacity of PROTACs (FIG. 1)
Text: UBE2K binder Compound 1 was used as a precursor to generate PROTAC Compounds 2, 6, 7, and 9. See experimental section above. Each of these PROTACs were first tested for their ability to bind the E2 enzyme UBE2K.

[3] = target: T2, BRD4 (Homo sapiens, UniProt O60885); test: Dose dependent degradation of BRD4 in HeLa cells (FIG. 2); format: cell-based
T2 construct: dose dependent degradation of BRD4 in HeLa cells; endogenous in cells; host or cells: HeLa
Text: FIG. 2 illustrates the dose dependent degradation of BRD4 in HeLa cells using E2 binding PROTACS based on the present disclosure.
Dose Dependent Degradation of BRD4 in HeLa Cells
Compounds 6, 7, and 9 were then investigated for their ability to degrade BRD4.

Row | Structure (SMILES) | loss of BRD4 [3] | also measured
1 | O=C(NCc1cc2c3ccccc3nc(S)n2n1)c1ccccc1OC(F)(F)F [Compound 1, N-((5-thioxo-5,6-dihydropyrazolo[1,5-c]quinazolin-2-yl)methyl)-2-(trifluoromethoxy)benzamide] |  | Kd [1]: 2110 nM
2 | Cc1sc2c(c1C)C(c1ccc(Cl)cc1)=N[C@@H](CC(=O)NCCSc1nc3ccccc3c3cc(CNC(=O)c4ccccc4OC(F)(F)F)nn13)c1nnc(C)n1-2 [Compound 2, (S)—N-((5-((2-(2-(4-(4-chlorophenyl)-2,3,9-trimethyl-6H-thieno[3,2-f][1,2,4]triazolo[4,3-a][1,4]diazepin-6-yl)acetamido)ethyl)thio)pyrazolo[1,5-c]quinazolin-2-yl)methyl)-2-(trifluoromethoxy) benzamide] |  | binding to UBE2K-Ub [2]: All compounds except for Compound 2 bind
3 | Cc1sc2c(c1C)C(c1ccc(Cl)cc1)=N[C@@H](CC(=O)NCCOCCNC(=O)CSc1nc3ccccc3c3cc(CNC(=O)c4ccccc4OC(F)(F)F)nn13)c1nnc(C)n1-2 [Compound 7, (S)—N-((5-((2-((2-(2-(2-(4-(4-chlorophenyl)-2,3,9-trimethyl-6H-thieno[3,2-f][1,2,4]triazolo[4,3-a][1,4]diazepin-6-yl)acetamido)ethoxy)ethyl)amino)-2-oxoethyl)thio)pyrazolo[1,5-c]quinazolin-2-yl)methyl)-2-(trifluoromethoxy)benzamide] | concentration dependent loss of BRD4 | 
4 | Cc1sc2c(c1C)C(c1ccc(Cl)cc1)=N[C@@H](CC(=O)NCCOCCOCCNC(=O)CSc1nc3ccccc3c3cc(CNC(=O)c4ccccc4OC(F)(F)F)nn13)c1nnc(C)n1-2 [Compound 9, (S)—N-((5-((14-(4-(4-chlorophenyl)-2,3,9-trimethyl-6H-thieno [3,2 f][1,2,4]triazolo [4,3-a][1,4]diazepin-6-yl)-2,13-dioxo-6,9-dioxa-3,12-diazatetradecyl)thio)pyrazolo[1,5-c]quinazolin-2-yl)methyl)-2-(trifluoromethoxy)benzamide] | concentration dependent loss of BRD4 | 
